Usually EC50 stands for the concentration giving half of the maximal effect. Lower therefore signals higher potency in that assay. The LD50 is the dose at which mortality reaches 50%. Low values mean a more toxic substance, high ones a less toxic substance. The term IC50 denotes the concentration at which inhibition is half-maximal.

Data on 9 compounds can be found in patent publication US5914324A, “6-Hydroxy and 6-oxo-androstane derivatives active on the cardiovascular system and pharmaceutical compositions containing same” (Sigma-Tau Industrie Farmaceutiche Riunite S.p.A., priority 1996, dated 1999).

Where a name gives a salt, the structure may show the parent alone. Some results are limits rather than exact numbers.

The subject of data set [1] is guinea pig left atrium. Kind of data set: inotropic activity in vitro, electrically paced guinea pig left atrium. Particulars: Cavia porcellus.
Data set [2] can be described thus: acute toxicity mouse oral. To be noted: in vivo. The text has this:
Finally the compounds of the invention have a low toxicity when compared with standard cardiotonic steroids.

Data set [3] concerns the target T1, Na+,K+-ATPase (Canis lupus familiaris, UniProt P50997).
T1 construct: Na^+,K^+ -ATPase receptor purified according to Jorghensen; from tissue
Kind of data set: inhibition of the activity of the purified Na+,K+-ATPase (hydrolysis of 32P-ATP). It is filed as biochemical. Particulars: purified enzyme. The text has this: (§1) To test the affinity for the receptor site of the Na^+,K^+ -ATPase and the inhibitory activity on the enzyme, the following tests were used: a) displacement of the specific 3H-ouabain binding from the Na^+,K^+ -ATPase receptor purified according to Jorghensen (Jorghensen P., BBA.

Data set [4] has as its target T1, Na+,K+-ATPase. Kind of data set: displacement of the specific 3H-ouabain binding from the Na+,K+-ATPase receptor. To be noted: displacement of specific 3H-ouabain binding, purified enzyme.
Excerpt: as §1

As for `C[C@H]1O[C@@H](O[C@H]2[C@@H](O)C[C@H](O[C@H]3[C@@H](O)C[C@H](O[C@H]4CC[C@@]5(C)[C@H](CC[C@@H]6[C@@H]5C[C@@H](O)[C@]5(C)[C@@H](C7=CC(=O)OC7)CC[C@]65O)C4)O[C@@H]3C)O[C@@H]2C)C[C@H](O)[C@@H]1O` [Digoxin, reference compound], it took 500 nM to reach a half-maximal effect in data set [1] (EC50). This compound also had a median lethal dose (LD50) in data set [2] of 18 mg/kg.

Turning to `C[C@]12CCC(=NOCCN)C[C@@H]1[C@@H](O)C[C@@H]1[C@@H]2CC[C@]2(C)[C@@H](O)CC[C@@H]12` [I-a, (E,Z)-3-(2-aminoethoxyimino)-5α-androstan-6α,17β-diol oxalate], the IC50 in data set [3] is 1600 nM. Besides, the EC50 in data set [1] amounted to 2500 nM; in data set [4], 100 nM. The same compound gave a median lethal dose (LD50) in data set [2] of over 600 mg/kg.

Consider `C[C@]12CC[C@H](/C=N\OCCN)C[C@@H]1[C@@H](O)C[C@@H]1[C@@H]2CC[C@]2(C)[C@@H](O)CC[C@@H]12.O=C(O)C(=O)O` [I-d, (Z)-3β-(2-aminoethoxyiminomethyl)-5α-androstan-6α,17β-diol oxalate], for which the half-inhibitory concentration (IC50) in data set [3] amounted to 1600 nM. Further, the EC50 in data set [1] turned out to be 10500 nM; in data set [4], 130 nM. Besides, the LD50 in data set [2] is over 600 mg/kg.

Take `CN(C)CCO/N=C\[C@H]1CC[C@@]2(C)[C@H](C1)[C@@H](O)C[C@@H]1[C@@H]2CC[C@]2(C)[C@@H](O)CC[C@@H]12` [I-e, (Z)-3β-(2-N,N-dimethylaminoethoxyiminomethyl)-5α-androstan-6α,17β-diol oxalate]: the IC50 in data set [3] was 2000 nM. In addition, the concentration for a half-maximal effect (EC50) in data set [1] worked out at 5600 nM; in data set [4], 160 nM. In data set [2], this compound yielded a median lethal dose (LD50) of over 600 mg/kg.

Turning to `CN(C)CCO/N=C/C=C1\CC[C@@]2(C)[C@H](C1)[C@@H](O)C[C@@H]1[C@@H]2CC[C@]2(C)[C@@H](O)CC[C@@H]12` [I-f, (E)-3-[3-(2-N,N-dimethylaminoethoxyimino)(E)-propen-1-yl)-5α-androstan-6α,17β-diol], half-maximal inhibition in data set [3] (IC50) was put at 1000 nM. Further, the concentration for a half-maximal effect (EC50) in data set [1] came out at 800 nM; in data set [4], 100 nM. This compound also registered a 50% lethal dose (LD50) in data set [2] of 560 mg/kg.

Consider `C[C@]12CCC(=NOCCN)C[C@@H]1C(=O)C[C@@H]1[C@@H]2CC[C@]2(C)C(=O)CC[C@@H]12` [I-h, (E,Z)-3-(2-aminoethoxyimino)-5α-androstan-6,17-dione emioxalate], for which half-maximal inhibition in data set [3] (IC50) required 300 nM. Moreover, the EC50 in data set [1] was found to be 600 nM; in data set [4] it was 20 nM. For the same compound, the LD50 in data set [2] came out at 520 mg/kg.

In turn, `CN(C)CCO/N=C1/CC[C@@]2(C)[C@H](C1)C(=O)C[C@@H]1[C@@H]2CC[C@]2(C)C(=O)CC[C@@H]12` [I-i, (Z)-3-(2-N,N-dimethylaminoethoxyimino)-5α-androstan-6,17-dione] showed an IC50 in data set [3] of 12000 nM. The values for the EC50 in data set [1] and in data set [4] were 7100 nM and 500 nM, respectively. Moreover, in data set [2], the median lethal dose (LD50) is over 1000 mg/kg.

As for `CN(C)CCO/N=C/C=C1\CC[C@@]2(C)[C@H](C1)C(=O)C[C@@H]1[C@@H]2CC[C@]2(C)C(=O)CC[C@@H]12` [I-k, (E)-3-[3-(2-N,N-dimethylaminoethoxyimino)(E)-propen-1-yl)-5α-androstan-6,17-dione oxalate], it took 3200 nM to reach half-maximal inhibition in data set [3] (IC50). Moreover, the half-maximal effective concentration (EC50) in data set [1] came out at 12600 nM; in data set [4], 320 nM. For the same compound, the LD50 in data set [2] is over 600 mg/kg.

For `CN(C)CCCO[C@H]1CC[C@@]2(C)[C@H](C1)C(=O)C[C@@H]1[C@@H]2CC[C@]2(C)C(=O)CC[C@@H]12` [I-m, 3β-(3-N,N-dimethylaminopropoxy)-5α-androstan-6,17-dione], the half-inhibitory concentration (IC50) in data set [3] was 50000 nM. Further, the concentration for a half-maximal effect (EC50) in data set [1] is 20000 nM; in data set [4] it was 1300 nM. In addition, in data set [2], the 50% lethal dose (LD50) is over 1000 mg/kg.
